# In ChEMBL document CHEMBL1201862, “PubChem BioAssay data set” (2004):
# Activity calls are given as the source filed them.
# What was measured:
# [1] = NIH3T3 cell viability loss – ATP luminescence, mouse fibroblasts, counter-screen, dose response (AID 2010); format: functional, cell-based;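 also: cells exposed to compound for about 90 hours before reading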
# [2] = target: ATP-dependent molecular chaperone HSP82 (Candida albicans (strain WO-1) (Yeast), UniProt C4YTQ8); experiment: steroid-induced GRE reporter decrease in yeast – S. cerevisiae, luminescence, Hsp90 inhibitor project, dose response (AID 2400); format: functional, cell-based;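 also: beta-galactosidase luminescence from glucocorticoid response element reporter as proxy for Hsp90 function; inhibitor potency where signal loss means Hsp90 inhibition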
# Sequence of ATP-dependent molecular chaperone HSP82 (C4YTQ8 whole entry): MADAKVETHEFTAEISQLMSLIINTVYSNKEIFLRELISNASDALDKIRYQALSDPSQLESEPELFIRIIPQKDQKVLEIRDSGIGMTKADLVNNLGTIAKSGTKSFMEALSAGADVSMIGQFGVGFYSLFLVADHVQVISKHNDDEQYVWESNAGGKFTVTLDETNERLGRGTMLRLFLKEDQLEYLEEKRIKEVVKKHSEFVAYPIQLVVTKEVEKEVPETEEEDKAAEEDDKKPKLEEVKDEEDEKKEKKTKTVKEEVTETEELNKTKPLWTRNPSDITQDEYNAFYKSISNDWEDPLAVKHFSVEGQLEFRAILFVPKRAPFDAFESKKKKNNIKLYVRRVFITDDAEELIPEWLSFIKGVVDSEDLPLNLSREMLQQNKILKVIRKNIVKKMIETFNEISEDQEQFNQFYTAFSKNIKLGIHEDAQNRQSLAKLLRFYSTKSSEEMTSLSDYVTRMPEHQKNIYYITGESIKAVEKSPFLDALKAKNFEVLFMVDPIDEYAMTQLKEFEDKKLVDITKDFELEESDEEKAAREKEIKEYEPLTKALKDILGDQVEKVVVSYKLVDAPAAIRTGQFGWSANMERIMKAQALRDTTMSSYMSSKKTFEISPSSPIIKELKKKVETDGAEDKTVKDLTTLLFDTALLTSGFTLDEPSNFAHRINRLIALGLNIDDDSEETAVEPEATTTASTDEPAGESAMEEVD
# [3] = ATP-based viability loss in HeLa cells – cell-based, CellTiter-Glo luminescence, dry powder, set 2, cytotoxicity control, dose response (AID 720593); format: functional
# [4] = microbe, parasite or virus in culture; format: functional; settings: Mycobacterium tuberculosis
# [5] = target: Protein-tyrosine kinase 2-beta (Homo sapiens, UniProt Q14289);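 also: potency of inhibitors of PYK2 kinase phosphorylation of poly-GT substrate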
# Sequence of Protein-tyrosine kinase 2-beta (Q14289 whole entry): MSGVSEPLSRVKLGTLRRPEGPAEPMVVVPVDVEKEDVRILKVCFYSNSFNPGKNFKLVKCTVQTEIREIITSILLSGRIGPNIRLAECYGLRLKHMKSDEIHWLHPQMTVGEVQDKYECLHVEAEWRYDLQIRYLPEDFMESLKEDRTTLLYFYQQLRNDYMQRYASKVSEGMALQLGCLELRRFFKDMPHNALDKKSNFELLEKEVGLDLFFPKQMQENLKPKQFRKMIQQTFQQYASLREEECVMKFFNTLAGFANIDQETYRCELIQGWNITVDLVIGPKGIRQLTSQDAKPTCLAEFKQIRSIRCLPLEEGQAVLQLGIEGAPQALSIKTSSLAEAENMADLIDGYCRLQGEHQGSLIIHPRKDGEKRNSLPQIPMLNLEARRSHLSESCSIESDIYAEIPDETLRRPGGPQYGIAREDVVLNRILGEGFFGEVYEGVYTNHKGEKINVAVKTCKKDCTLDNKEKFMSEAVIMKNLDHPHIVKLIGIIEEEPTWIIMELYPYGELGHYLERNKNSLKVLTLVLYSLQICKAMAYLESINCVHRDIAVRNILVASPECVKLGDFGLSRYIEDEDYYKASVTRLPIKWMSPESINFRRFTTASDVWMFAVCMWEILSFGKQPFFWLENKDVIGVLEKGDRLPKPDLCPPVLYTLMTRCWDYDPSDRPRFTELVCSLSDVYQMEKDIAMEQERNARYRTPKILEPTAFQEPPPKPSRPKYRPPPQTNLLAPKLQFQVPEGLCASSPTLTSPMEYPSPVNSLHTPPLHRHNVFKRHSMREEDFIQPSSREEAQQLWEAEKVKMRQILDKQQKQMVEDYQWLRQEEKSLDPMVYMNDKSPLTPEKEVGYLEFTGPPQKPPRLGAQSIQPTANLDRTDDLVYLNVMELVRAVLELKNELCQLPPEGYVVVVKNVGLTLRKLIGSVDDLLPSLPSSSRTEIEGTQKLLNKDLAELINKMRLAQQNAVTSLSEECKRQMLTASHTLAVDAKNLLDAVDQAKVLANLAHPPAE
# BJ [6] = experiment: BJ-TERT fibroblast viability loss – cell-based, RAS-independent, luminescence, dose response (AID 1933); format: functional; settings: Homo sapiens
# BJ [7] = experiment: cells; format: functional, cell-based; settings: Homo sapiens
# [8] = DRD fibroblast viability loss – cell-based, non-viral oncogenic, luminescence, dose response (AID 1934); format: functional; settings: Homo sapiens
# HEK293 = experiment: membrane integrity loss in HEK cells – cell-based, fluorescence, cytotoxicity control for IDE activator project, dose response (AID 588440); format: functional; settings: Homo sapiens;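 also: cytotoxicity by LDH release measuring loss of membrane integrity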
# [9] = target: T1, DNA repair protein RAD52 homolog (Homo sapiens, UniProt P43351); format: functional, biochemical
# T1 sequence (P43351 whole entry): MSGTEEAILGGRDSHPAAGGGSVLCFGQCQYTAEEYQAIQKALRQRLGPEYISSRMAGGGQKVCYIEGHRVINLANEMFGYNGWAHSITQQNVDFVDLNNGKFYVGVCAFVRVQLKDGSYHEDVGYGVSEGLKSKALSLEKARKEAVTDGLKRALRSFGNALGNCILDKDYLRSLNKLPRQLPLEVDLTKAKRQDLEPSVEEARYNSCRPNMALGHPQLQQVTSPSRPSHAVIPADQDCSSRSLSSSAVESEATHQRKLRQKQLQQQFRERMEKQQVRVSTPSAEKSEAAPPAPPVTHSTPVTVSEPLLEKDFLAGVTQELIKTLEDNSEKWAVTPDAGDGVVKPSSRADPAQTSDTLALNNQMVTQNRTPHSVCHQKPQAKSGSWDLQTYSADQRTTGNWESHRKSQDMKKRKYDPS
# [10] = target: Tyrosine-protein kinase SYK (Homo sapiens, UniProt P43405); format: functional
# [11] = target: High affinity nerve growth factor receptor (Homo sapiens, UniProt P04629); format: functional;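 also: NTRK1 tested as one member of a kinome-wide profiling panel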
# Sequence of High affinity nerve growth factor receptor (P04629 whole entry, the tested form may be a part): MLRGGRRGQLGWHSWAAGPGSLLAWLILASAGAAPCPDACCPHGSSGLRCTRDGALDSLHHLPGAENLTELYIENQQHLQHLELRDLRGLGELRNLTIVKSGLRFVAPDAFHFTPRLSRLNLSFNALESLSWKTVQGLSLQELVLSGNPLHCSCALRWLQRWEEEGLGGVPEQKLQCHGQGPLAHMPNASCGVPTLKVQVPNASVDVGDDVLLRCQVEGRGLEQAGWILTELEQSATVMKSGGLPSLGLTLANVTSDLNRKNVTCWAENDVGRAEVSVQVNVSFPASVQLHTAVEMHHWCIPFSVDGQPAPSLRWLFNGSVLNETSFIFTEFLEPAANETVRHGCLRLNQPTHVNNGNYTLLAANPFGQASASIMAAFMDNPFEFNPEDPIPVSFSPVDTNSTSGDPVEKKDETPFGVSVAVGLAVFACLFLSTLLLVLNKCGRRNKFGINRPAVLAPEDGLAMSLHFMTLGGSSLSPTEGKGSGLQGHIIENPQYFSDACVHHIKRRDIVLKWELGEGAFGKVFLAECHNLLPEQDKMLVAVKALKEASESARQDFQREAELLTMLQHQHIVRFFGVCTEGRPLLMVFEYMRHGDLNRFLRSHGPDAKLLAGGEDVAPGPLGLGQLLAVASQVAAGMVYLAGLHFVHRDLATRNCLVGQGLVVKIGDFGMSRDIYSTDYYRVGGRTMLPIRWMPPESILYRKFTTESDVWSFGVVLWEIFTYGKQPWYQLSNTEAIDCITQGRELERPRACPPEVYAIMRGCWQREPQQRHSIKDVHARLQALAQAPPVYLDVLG
# LIM domain kinase 1 = LIM domain kinase 1 (Homo sapiens, UniProt P53667); experiment: Navigating the Kinome. Panel member name: LIMK1; format: functional
# Sequence of LIM domain kinase 1 (P53667 whole entry, the tested form may be a part): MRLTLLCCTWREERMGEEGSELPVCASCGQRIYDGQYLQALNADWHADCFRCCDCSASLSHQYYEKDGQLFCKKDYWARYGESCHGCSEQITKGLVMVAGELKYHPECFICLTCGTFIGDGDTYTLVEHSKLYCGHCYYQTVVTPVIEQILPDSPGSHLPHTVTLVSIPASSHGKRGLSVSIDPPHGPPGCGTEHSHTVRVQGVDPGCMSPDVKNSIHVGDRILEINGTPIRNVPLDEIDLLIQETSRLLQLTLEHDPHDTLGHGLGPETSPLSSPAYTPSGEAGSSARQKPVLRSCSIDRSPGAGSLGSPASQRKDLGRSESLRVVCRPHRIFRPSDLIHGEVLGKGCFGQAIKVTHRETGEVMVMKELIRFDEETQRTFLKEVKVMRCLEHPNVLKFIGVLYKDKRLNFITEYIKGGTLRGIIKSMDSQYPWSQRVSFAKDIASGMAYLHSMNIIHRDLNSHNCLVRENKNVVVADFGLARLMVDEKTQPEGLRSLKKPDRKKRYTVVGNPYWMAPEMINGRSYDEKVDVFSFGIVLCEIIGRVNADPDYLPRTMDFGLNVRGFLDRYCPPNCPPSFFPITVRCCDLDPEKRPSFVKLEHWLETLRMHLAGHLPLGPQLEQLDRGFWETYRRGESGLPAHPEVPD
# [12] = target: Hepatocyte growth factor receptor (Homo sapiens, UniProt P08581); format: functional;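 also: kinase panel profiling across the kinome, with MET as the panel member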
# [13] = target: Platelet-derived growth factor receptor beta (Homo sapiens, UniProt P09619); format: functional;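 also: value comes from a kinome panel, with PDGFRB tested as one panel member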
# Sequence of Platelet-derived growth factor receptor beta (P09619 whole entry): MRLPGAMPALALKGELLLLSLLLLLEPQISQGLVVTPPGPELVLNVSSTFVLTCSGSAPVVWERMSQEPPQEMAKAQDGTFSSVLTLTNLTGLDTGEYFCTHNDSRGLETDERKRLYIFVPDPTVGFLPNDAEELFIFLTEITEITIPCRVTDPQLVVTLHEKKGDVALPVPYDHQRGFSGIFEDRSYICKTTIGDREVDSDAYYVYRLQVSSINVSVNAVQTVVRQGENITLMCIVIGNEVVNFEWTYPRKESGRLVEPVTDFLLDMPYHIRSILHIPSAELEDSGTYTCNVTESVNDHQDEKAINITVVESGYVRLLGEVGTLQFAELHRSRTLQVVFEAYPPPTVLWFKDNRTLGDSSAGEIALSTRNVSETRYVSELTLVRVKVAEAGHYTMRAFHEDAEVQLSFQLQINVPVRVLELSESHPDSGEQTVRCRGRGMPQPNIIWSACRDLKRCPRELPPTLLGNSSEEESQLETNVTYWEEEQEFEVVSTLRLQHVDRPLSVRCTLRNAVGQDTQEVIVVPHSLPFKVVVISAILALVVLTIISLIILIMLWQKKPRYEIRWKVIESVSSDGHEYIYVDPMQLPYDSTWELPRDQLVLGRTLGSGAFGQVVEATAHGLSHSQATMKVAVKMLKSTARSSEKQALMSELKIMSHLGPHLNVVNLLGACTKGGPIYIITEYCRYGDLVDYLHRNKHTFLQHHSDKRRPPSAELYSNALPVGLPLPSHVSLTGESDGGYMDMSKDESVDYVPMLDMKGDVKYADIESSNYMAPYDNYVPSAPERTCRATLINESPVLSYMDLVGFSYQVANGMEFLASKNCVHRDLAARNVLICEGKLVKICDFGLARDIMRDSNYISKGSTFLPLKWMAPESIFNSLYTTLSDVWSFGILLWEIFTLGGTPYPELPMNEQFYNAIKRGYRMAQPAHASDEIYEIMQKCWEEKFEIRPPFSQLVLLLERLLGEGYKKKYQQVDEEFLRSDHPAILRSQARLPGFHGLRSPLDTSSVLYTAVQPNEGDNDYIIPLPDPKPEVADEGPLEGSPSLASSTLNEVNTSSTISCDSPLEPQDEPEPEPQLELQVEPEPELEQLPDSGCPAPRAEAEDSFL
# [14] = target: Serine/threonine-protein kinase Chk1 (Homo sapiens, UniProt O14757); format: functional;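 also: measured as one member of a kinome-wide kinase profiling panel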
# Sequence of Serine/threonine-protein kinase Chk1 (O14757 whole entry): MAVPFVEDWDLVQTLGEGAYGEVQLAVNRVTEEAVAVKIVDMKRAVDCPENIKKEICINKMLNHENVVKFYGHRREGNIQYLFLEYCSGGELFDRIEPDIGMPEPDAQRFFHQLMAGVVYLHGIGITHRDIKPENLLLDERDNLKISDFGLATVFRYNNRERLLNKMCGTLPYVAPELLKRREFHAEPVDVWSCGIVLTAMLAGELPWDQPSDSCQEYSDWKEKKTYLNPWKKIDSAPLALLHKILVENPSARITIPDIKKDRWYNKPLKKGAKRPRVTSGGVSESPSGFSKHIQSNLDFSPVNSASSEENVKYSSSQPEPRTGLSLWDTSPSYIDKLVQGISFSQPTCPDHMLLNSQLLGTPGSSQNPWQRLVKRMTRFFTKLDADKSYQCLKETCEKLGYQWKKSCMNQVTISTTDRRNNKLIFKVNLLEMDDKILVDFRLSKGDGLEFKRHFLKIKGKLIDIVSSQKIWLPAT
# [15] = target: G protein-coupled receptor kinase 5 (Homo sapiens, UniProt P34947); experiment: Navigating the Kinome. Panel member name: GPRK5; format: functional
# [16] = target: T2, Sentrin-specific protease 6 (Homo sapiens, UniProt Q9GZR1); format: functional;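 also: Luminescence-based dose-response confirmatory assay of SENP6 inhibition, following up an ultra-high-throughput screen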
# T2 sequence (Q9GZR1 whole entry): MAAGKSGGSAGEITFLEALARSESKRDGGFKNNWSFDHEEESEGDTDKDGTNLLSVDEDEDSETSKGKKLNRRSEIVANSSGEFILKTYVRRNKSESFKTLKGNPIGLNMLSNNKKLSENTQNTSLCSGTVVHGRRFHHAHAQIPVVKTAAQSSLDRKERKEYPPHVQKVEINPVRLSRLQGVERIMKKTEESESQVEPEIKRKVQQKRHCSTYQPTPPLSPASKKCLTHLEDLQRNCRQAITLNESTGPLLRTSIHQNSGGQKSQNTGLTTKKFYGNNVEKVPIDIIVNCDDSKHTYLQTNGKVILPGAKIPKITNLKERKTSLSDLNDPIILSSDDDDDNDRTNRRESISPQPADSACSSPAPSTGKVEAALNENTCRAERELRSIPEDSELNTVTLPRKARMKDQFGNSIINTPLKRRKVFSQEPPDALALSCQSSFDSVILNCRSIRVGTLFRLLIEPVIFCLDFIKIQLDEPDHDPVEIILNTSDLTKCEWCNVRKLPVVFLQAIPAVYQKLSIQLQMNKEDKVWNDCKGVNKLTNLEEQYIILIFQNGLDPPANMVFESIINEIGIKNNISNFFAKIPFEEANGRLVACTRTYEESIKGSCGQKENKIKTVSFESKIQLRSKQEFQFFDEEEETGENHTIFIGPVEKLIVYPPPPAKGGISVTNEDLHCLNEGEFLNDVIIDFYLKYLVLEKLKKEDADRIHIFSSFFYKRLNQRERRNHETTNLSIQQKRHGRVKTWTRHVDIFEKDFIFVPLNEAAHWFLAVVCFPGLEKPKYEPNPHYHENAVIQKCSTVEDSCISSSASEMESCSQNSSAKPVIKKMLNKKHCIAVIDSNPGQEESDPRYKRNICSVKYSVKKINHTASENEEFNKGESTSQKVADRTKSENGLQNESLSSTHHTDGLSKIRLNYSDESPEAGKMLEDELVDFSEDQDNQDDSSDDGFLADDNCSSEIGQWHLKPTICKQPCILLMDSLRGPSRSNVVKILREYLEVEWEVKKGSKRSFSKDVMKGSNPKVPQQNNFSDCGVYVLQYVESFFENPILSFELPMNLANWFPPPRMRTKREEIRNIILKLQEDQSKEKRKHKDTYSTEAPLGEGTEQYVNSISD
# [17] = target: T3, Mannose-6-phosphate isomerase (Homo sapiens, UniProt P34949); experiment: MPI inhibition at elevated mannose 6-phosphate – biochemical, fluorescence intensity, high mannose 6-phosphate, primary screen (AID 1220)
# T3 sequence (P34949 whole entry): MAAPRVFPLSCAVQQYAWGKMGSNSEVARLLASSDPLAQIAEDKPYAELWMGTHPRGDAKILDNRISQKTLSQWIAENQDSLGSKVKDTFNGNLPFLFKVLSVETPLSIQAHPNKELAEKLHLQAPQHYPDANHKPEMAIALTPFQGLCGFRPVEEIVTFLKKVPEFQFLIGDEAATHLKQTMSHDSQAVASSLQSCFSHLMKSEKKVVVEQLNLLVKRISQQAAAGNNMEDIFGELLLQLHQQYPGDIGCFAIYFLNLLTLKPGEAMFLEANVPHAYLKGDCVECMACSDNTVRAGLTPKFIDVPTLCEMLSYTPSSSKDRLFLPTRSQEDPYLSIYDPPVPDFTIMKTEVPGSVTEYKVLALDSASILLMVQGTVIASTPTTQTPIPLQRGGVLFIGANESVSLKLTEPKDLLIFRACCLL
compound,measurement,setting,value
CC(C)CC(=O)NC(c1cccs1)c1ccc2cccnc2c1O (centres undefined),EC50,[1],1.48 µM (active)
same,EC50,[2],> 150 µM (inactive)
same,AC50,[3],20.3 µM (active)
CCOC(=O)c1ccc(NC2=CC(=O)C(=O)c3ccccc32)cc1,CC50,[4],21.1 µM (active)
same,IC50,[5],> 69.5 µM (not active)
OC(CNCCC1C=Nc2ccccc21)Cn1c2ccc(Cl)cc2c2cc(Cl)ccc21 (centres undefined),EC50,BJ [6],5.3 µM (inconclusive)
same,EC50,BJ [7],> 75 µM (not active)
same,EC50,[8],9.1 µM (active)
same,IC50,HEK293,10.2 µM (inactive)
CCCCCCCCCCCCCCCC[N+](C)(C)C,AC50,[9],8.73 µM (active)
NC1CCC(Nc2nc(Cl)cc(-c3c[nH]c4ncccc34)n2)CC1 (centres undefined),Ki,[10],> 1.58 µM (inactive)
same,Ki,[11],> 3.16 µM (inactive)
O=C(O)C1CN(Cc2ccc(OCc3ccccc3)cc2Cl)C1,Ki,LIM domain kinase 1,> 3.16 µM (inactive)
same,Ki,[12],> 2.51 µM (inactive)
same,Ki,[13],> 2 µM (inactive)
same,Ki,[14],> 3.16 µM (inactive)
same,Ki,[15],> 3.98 µM (inactive)
COc1ccc(C(=O)c2nccc3cc(OC)c(OC)cc23)cc1OC,IC50,[16],0.805 µM (active)
Cc1ccccc1-c1cc2c(nn1)-c1ccccc1C2=O,IC50,[17],> 50 µM (not active)
